Consider three molecules from patent US20120128628A1, “COMBINATION OF A NUCLEOSIDE POLYMERASE INHIBITOR WITH A MACROCYCLIC PROTEASE INHIBITOR AND USE THEREOF IN THE TREATMENT OF HEPATITIS C, LIVER FIBROSIS AND IMPAIRED LIVER FUNCTION (as amended)” (priority 2009, published 2012).

The subject of one data set is HCV replication. The settings on record: cited from earlier work.
Data set [1] has as its system chronic hepatitis C genotype 1. The data set can be described thus: HCV RNA viral load determination (COBAS AmpilPrep/COBAS Taqman HCV Test RUO) in a dose ranging study in patients. The data set is classed as in vivo, Hepatitis C virus. The settings on record: monotherapy 750 mg, bid; after 7 days of treatment. How it is done:
A randomized, double-blind, placebo controlled, dose ranging study of Compound 1a and Compound 2 in adult patients with chronic hepatitis C genotype 1 was conducted. Approximately 54 treatment naïve males and females between 18 and 65 years of age (inclusive) with genotype 1 HCV infection who had not previously been treated with an interferon or investigational HCV therapeutic agent were enrolled. Approximately an additional 20 treatment patients who had failed treatment with the current standard of care (null, partial responders and relapsers) were enrolled. […] Subjects with liver cirrhosis or incomplete/transition to cirrhosis, or other forms of liver disease, anemia, HIV or HBV infection, hepatocellular carcinoma, cardiac disease or renal disease were excluded from this particular protocol, as well as pregnant or lactating women, women of childbearing potential, and male partners of women who are pregnant or lactating.
Seven groups, Groups I, II, III, IV, V, VI and VII, of subjects were studied. Blood samples were collected at time points to determine pharmacokinetics parameters, including Tmax, Cmax, Kel, T1/2, AUC, CL/F, Vd/F and accumulation ratio.
The specifics of Groups I, II, III, IV, V, VI and VII are shown in Table 1 below and pictorially in FIGS. 2 and 3. Group I included two arms with 8 subjects in Arm 1 and 8 subjects in Arm 2. […]
A general note: Quantitative PCR measures a nucleic acid by following its amplification.

For data set [2] the following is noted: prodrug compared to Compound 1; cited from earlier work.

In the case of `C[C@@]1(F)[C@H](O)[C@@H](CO)O[C@H]1n1ccc(N)nc1=O` [Compound 1, β-D-2′-deoxy-2′-fluoro-2′-C-methylcytidine], the “inhibiting HCV replication” value in the data set on HCV replication is “effective in inhibiting HCV replication”.
Regarding “diisobutyl ester prodrug of β-D-2′-deoxy-2′-fluoro-2′-C-methylcytidine [Compound 1a]”, in data set [1], the “mean log change from baseline of HCV RNA viral load” value is given as −1.3 log10 IU/mL. In addition, in the data set on HCV replication (prodrug compared to Compound 1), the anti-viral efficacy result was “improved anti-viral efficacy”. In data set [2], the permeability result is reported as “increased permeability” and the plasma exposure entry is recorded as “increased plasma exposure”.
For `CC(C)(C)OC(=O)N[C@H]1CCCCCC=C[C@@H]2C[C@@]2(C(=O)NS(=O)(=O)C2CC2)NC(=O)[C@@H]2C[C@@H](OC(=O)N3Cc4cccc(F)c4C3)CN2C1=O` [Compound 2, (1S,4R,6S,14S,18R)-4-Fluoro-1,3-dihydro-isoindole-2-carboxylic acid 14-tert-butoxycarbonylamino-4-cyclopropanesulfonylaminocarbonyl-2,15-dioxo-3,16-diaza-tricyclo[14.3.0.04,6]nonadec-7-en-18-yl ester], in the data set with HCV replication, the “inhibiting HCV replication” value is “effective in inhibiting HCV replication”.
